Measured values taken from the kinase profiling compilation of Christmann-Franck et al. (2016).

Tests used:
Test in all cases: KINOMEscan competition binding
Details in all cases: compound 10.0 µM
[1] = target: DCLK2 (human) (UniProt Q8N568)
[2] = target: PAK4 (human) (UniProt O96013)
[3] = target: FGFR3 (human) (UniProt P22607)
[4] = target: TNNI3K (human) (UniProt Q59H18)
[5] = target: SNRK (human) (UniProt Q9NRH2)
[6] = target: PTK2 (human) (UniProt Q05397)
[7] = target: PKN1 (human) (UniProt Q16512)
[8] = target: MAPK10 (human) (UniProt P53779)
Sequence of MAPK10 (human) (P53779 whole entry, looked up): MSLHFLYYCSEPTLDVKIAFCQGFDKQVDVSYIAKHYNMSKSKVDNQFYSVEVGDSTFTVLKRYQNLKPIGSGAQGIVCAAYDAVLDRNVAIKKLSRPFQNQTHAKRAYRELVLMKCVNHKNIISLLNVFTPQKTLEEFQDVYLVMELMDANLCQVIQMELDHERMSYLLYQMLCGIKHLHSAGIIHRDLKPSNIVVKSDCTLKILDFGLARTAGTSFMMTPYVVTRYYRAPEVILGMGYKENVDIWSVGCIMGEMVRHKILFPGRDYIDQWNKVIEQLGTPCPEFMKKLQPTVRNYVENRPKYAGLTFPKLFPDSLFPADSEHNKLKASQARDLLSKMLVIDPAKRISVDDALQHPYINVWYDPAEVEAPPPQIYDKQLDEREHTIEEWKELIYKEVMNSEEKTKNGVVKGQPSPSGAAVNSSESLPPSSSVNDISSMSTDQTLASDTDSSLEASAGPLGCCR

[9] = target: HIPK1 (human) (UniProt Q86Z02)
[10] = target: GSK3B (human) (UniProt P49841)
[11] = target: LATS2 (human) (UniProt Q9NRM7)
[12] = target: CDK13 (human) (UniProt Q14004)
[13] = tested on: EGFR (human), P00533 [747-751 del / S ins]
[14] = target: MAPK7 (human) (UniProt Q13164)
[15] = target: EPHB2 (human) (UniProt P29323)
[16] = target: PLK3 (human) (UniProt Q9H4B4)
[17] = target: DAPK3 (human) (UniProt O43293)
[18] = target: CDK4 CCND1 (human) (UniProt P11802+P24385)
[19] = target: ERN1 (human) (UniProt O75460)
[20] = target: CSNK1G3 (human) (UniProt Q9Y6M4)
[21] = target: CLK1 (human) (UniProt P49759)
[22] = target: RAF1 (human) (UniProt P04049)
[23] = target: PIM3 (human) (UniProt Q86V86)
[24] = target: ULK3 (human) (UniProt Q6PHR2)
[25] = target: BLK (human) (UniProt P51451)
[26] = target: TNK1 (human) (UniProt Q13470)
[27] = target: CAMK1G (human) (UniProt Q96NX5)
Sequence of CAMK1G (human) (Q96NX5 whole entry, looked up): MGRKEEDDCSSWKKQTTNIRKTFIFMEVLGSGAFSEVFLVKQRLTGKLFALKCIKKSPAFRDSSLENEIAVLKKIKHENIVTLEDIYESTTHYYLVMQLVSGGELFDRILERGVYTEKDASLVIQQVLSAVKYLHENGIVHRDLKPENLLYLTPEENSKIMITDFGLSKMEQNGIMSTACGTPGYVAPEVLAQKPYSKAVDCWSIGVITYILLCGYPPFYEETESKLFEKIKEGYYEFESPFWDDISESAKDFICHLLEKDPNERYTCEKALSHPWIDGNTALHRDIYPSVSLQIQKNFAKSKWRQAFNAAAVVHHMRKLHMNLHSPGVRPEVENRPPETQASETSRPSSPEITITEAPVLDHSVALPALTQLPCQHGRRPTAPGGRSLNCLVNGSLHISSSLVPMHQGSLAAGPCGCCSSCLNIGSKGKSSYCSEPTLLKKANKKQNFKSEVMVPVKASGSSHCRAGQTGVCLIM

[28] = target: BMPR1B (human) (UniProt O00238)
[29] = target: KDR (human) (UniProt P35968)
[30] = target: MKNK1 (human) (UniProt Q9BUB5)
[31] = target: PRKCD (human) (UniProt Q05655)
Sequence of PRKCD (human) (Q05655 whole entry, looked up): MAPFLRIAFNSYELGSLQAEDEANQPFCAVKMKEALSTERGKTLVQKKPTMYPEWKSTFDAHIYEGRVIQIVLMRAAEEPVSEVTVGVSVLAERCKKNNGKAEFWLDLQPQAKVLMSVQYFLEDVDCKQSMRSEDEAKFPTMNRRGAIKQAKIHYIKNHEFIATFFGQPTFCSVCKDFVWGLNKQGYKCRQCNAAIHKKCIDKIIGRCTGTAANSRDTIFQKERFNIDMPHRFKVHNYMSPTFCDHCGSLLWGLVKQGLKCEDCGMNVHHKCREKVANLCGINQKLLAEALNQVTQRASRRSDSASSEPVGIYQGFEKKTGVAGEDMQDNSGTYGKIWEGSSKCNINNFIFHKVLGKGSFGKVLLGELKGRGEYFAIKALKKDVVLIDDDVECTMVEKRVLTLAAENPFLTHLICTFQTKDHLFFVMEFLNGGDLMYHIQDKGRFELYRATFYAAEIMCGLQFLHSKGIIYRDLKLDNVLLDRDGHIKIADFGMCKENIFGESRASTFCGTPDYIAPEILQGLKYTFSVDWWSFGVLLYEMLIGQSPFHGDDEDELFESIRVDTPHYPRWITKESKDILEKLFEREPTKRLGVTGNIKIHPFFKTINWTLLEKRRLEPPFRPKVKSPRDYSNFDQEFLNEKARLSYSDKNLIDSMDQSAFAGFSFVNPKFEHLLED

[32] = target: ULK1 (human) (UniProt O75385)
[33] = target: PRKD1 (human) (UniProt Q15139)
[34] = target: EPHA5 (human) (UniProt P54756)
[35] = target: MAP2K1 (human) (UniProt Q02750)
[36] = target: ROCK2 (human) (UniProt O75116)
Sequence of ROCK2 (human) (O75116 whole entry, looked up): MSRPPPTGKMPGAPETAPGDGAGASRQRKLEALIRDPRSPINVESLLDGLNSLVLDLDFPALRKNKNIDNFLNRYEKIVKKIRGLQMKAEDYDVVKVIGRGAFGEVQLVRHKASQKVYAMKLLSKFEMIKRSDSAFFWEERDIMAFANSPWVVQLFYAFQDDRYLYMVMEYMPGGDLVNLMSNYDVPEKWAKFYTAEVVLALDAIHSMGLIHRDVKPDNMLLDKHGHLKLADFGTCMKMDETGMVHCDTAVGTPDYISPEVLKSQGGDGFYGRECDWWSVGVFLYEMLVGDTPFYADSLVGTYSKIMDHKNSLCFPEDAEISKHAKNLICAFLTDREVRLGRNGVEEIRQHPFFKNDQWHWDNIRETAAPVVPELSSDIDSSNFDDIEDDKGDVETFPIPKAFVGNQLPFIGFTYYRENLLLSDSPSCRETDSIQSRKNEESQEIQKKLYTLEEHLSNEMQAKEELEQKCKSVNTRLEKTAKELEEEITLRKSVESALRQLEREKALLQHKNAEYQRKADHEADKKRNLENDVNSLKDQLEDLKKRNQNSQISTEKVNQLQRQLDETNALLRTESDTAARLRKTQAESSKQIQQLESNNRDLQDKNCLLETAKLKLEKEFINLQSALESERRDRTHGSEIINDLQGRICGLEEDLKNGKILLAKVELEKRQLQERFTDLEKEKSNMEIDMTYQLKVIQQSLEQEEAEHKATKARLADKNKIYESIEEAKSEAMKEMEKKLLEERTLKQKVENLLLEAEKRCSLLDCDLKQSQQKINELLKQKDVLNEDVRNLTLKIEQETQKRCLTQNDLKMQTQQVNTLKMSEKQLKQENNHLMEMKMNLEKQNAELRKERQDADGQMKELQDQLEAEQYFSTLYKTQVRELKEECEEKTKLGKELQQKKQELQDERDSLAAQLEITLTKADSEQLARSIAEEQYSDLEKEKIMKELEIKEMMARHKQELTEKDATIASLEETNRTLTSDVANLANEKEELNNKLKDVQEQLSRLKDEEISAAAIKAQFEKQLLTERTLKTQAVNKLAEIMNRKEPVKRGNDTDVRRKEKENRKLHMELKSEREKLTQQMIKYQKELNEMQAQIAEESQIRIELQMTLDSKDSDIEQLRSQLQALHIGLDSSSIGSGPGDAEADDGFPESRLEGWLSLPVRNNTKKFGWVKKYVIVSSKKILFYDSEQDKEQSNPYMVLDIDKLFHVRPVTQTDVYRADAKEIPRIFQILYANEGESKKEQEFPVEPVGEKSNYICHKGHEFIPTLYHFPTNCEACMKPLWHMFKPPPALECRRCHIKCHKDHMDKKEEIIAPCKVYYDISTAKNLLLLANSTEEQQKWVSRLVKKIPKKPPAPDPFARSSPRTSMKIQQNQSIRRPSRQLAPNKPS

[37] = target: CHEK1 (human) (UniProt O14757)
[38] = target: MAP3K4 (human) (UniProt Q9Y6R4)
[39] = target: MAP4K3 (human) (UniProt Q8IVH8)
[40] = target: WEE2 (human) (UniProt P0C1S8)

Sequence of SNRK (human) (Q9NRH2 whole entry, looked up): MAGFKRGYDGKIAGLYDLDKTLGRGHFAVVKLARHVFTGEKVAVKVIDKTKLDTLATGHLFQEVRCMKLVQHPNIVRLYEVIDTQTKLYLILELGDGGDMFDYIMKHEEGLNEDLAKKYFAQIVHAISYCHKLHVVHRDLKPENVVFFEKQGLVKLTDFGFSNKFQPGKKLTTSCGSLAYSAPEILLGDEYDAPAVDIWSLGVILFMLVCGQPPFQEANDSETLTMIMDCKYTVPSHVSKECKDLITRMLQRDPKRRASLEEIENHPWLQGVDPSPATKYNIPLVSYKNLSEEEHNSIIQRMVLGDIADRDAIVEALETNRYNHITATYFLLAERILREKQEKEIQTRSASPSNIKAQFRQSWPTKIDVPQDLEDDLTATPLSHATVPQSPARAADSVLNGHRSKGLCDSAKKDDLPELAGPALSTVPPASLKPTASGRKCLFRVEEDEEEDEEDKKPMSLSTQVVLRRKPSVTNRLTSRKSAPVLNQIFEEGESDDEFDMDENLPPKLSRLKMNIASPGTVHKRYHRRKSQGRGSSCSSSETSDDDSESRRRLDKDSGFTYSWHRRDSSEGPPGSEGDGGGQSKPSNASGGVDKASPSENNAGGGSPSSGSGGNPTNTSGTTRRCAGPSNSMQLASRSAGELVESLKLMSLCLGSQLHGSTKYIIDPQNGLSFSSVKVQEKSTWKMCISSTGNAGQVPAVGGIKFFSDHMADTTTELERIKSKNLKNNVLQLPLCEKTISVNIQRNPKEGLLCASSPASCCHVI
Sequence of PAK4 (human) (O96013 whole entry, looked up): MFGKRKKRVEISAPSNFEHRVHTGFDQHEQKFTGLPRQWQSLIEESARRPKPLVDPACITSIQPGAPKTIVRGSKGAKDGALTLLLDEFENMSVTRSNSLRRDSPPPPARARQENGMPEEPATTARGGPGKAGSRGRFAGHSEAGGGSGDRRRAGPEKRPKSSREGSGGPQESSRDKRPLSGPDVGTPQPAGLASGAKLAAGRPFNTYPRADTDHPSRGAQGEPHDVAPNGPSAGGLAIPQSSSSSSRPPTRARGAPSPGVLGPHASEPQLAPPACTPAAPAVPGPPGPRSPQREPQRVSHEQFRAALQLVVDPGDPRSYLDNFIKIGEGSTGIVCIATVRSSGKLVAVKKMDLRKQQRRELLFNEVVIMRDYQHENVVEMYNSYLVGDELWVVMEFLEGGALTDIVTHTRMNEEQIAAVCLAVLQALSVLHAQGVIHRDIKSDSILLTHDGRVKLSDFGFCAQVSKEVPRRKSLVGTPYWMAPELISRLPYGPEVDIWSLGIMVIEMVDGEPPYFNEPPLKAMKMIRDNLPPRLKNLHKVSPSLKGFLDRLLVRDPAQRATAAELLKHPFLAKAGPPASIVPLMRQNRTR

Compound	kinase still bound, per cent of control [1] [%]	kinase still bound, per cent of control [2] [%]	kinase still bound, per cent of control [3] [%]	kinase still bound, per cent of control [4] [%]	kinase still bound, per cent of control [5] [%]	kinase still bound, per cent of control [6] [%]	kinase still bound, per cent of control [7] [%]	kinase still bound, per cent of control [8] [%]	kinase still bound, per cent of control [9] [%]	kinase still bound, per cent of control [10] [%]	kinase still bound, per cent of control [11] [%]	kinase still bound, per cent of control [12] [%]	kinase still bound, per cent of control [13] [%]	kinase still bound, per cent of control [14] [%]	kinase still bound, per cent of control [15] [%]	kinase still bound, per cent of control [16] [%]	kinase still bound, per cent of control [17] [%]	kinase still bound, per cent of control [18] [%]	kinase still bound, per cent of control [19] [%]	kinase still bound, per cent of control [20] [%]	other results
O=C(Nc1cccc(Nc2ncc(Br)c(NCCc3cnc[nH]3)n2)c1)N1CCCC1	70	4	1	28	100	0.2	0.3	0.1	1.2	44	0	0.35	67	62	100	20	4	0.25	34	88	kinase still bound, per cent of control [21]: 13%; kinase still bound, per cent of control [22]: 100%; kinase still bound, per cent of control [23]: 69%; kinase still bound, per cent of control [24]: 0.1%; kinase still bound, per cent of control [25]: 0.6%; kinase still bound, per cent of control [26]: 1.4%; kinase still bound, per cent of control [27]: 28%; kinase still bound, per cent of control [28]: 0%; kinase still bound, per cent of control [29]: 1.8%; kinase still bound, per cent of control [30]: 100%; kinase still bound, per cent of control [31]: 12%; kinase still bound, per cent of control [32]: 0.05%; kinase still bound, per cent of control [33]: 0.65%; kinase still bound, per cent of control [34]: 92%; kinase still bound, per cent of control [35]: 0.15%; kinase still bound, per cent of control [36]: 0.55%; kinase still bound, per cent of control [37]: 0.4%; kinase still bound, per cent of control [38]: 47%; kinase still bound, per cent of control [39]: 4.6%; kinase still bound, per cent of control [40]: 36%
O=C1NC(=O)/C(=C/c2ccc3nccc(-c4ccncc4)c3c2)S1	91	75	100	79	100	100	56	26	6.9	66	100	95	84	59	86	49	0.6	92	66	2.4	kinase still bound, per cent of control [21]: 0%; kinase still bound, per cent of control [22]: 47%; kinase still bound, per cent of control [23]: 2.4%; kinase still bound, per cent of control [24]: 39%; kinase still bound, per cent of control [25]: 77%; kinase still bound, per cent of control [26]: 52%; kinase still bound, per cent of control [27]: 32%; kinase still bound, per cent of control [28]: 3.7%; kinase still bound, per cent of control [29]: 81%; kinase still bound, per cent of control [30]: 84%; kinase still bound, per cent of control [31]: 20%; kinase still bound, per cent of control [32]: 74%; kinase still bound, per cent of control [33]: 89%; kinase still bound, per cent of control [34]: 91%; kinase still bound, per cent of control [35]: 1.8%; kinase still bound, per cent of control [36]: 53%; kinase still bound, per cent of control [37]: 57%; kinase still bound, per cent of control [38]: 96%; kinase still bound, per cent of control [39]: 67%; kinase still bound, per cent of control [40]: 95%
COc1ccc(N(C(=O)Oc2c(C)cccc2C)c2ccnc(Nc3ccc(N4CCN(C)CC4)cc3)n2)c(OC)c1	44	97	1	0	100	32	15	37	100	72	70	100	0	39	0	100	88	5.4	62	87	kinase still bound, per cent of control [21]: 84%; kinase still bound, per cent of control [22]: 95%; kinase still bound, per cent of control [23]: 92%; kinase still bound, per cent of control [24]: 59%; kinase still bound, per cent of control [25]: 0.05%; kinase still bound, per cent of control [26]: 0%; kinase still bound, per cent of control [27]: 73%; kinase still bound, per cent of control [28]: 80%; kinase still bound, per cent of control [29]: 15%; kinase still bound, per cent of control [30]: 98%; kinase still bound, per cent of control [31]: 9.8%; kinase still bound, per cent of control [32]: 31%; kinase still bound, per cent of control [33]: 9.3%; kinase still bound, per cent of control [34]: 0.15%; kinase still bound, per cent of control [35]: 38%; kinase still bound, per cent of control [36]: 88%; kinase still bound, per cent of control [37]: 100%; kinase still bound, per cent of control [38]: 23%; kinase still bound, per cent of control [39]: 1.4%; kinase still bound, per cent of control [40]: 100%
